Test results from ChEMBL document CHEMBL1201862, “PubChem BioAssay data set” (2004).
Activity calls are given as the source filed them.

Columns and labels:
[1] = cytotoxicity in HEK-293T cells, dose response, cytotoxicity control for BCR NF-kB inhibitor project, luminescence, B-cell screen hits (AID 489021); type: functional, cell-based;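 further: HEK-293T cells carrying an NF-kB luciferase reporter; cells exposed to compound for about 14 hours before viability readout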
INS1 = experiment: beta cell apoptosis inhibitors, cytokine rescue, dose response, luminescence, retest (AID 449756); type: functional, cell-based; conditions: Rattus norvegicus;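 further: cell death triggered by IL-1 beta plus TNF-alpha plus IFN-gamma mixture; protective hits raise ATP signal compared with cytokine alone wells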
[2] = cytotoxicity toward NIH3T3 fibroblasts, dose response, counter-screen, cell-based, ATP luminescence, mouse fibroblasts (AID 2010); type: functional;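 further: cells exposed to compound for about 90 hours before reading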
cells [3] = type: functional, cell-based; conditions: HEK-CNG
[4] = NIH-3T3 fibroblast cytotoxicity, dose response, cytotoxicity control, cell-based, fluorescence, Alamar Blue, secondary assay (AID 2327); type: functional;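 further: NIH-3T3 mouse fibroblasts cultured with fluconazole at 8 µg/mL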
[5] = inhibitors of intracellular T. cruzi replication, confirmation, NIH3T3 host cells, beta-gal luminescence (AID 2044); type: functional, cell-based;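 further: intracellular parasites grown in NIH/3T3 mouse fibroblasts as host cells; luminescent beta-galactosidase reporter signal from transgenic T. cruzi replicating inside host cells; inhibitors lower the luminescence signal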
Galanin receptor type 3 = molecular target: T1, Galanin receptor type 3 (Homo sapiens, UniProt O60755); experiment: Fluorescence-based cell-based primary high throughput dose response assay to identify antagonists of the Galanin Receptor 3 (GalR3).; type: functional
T1 sequence (O60755 whole entry): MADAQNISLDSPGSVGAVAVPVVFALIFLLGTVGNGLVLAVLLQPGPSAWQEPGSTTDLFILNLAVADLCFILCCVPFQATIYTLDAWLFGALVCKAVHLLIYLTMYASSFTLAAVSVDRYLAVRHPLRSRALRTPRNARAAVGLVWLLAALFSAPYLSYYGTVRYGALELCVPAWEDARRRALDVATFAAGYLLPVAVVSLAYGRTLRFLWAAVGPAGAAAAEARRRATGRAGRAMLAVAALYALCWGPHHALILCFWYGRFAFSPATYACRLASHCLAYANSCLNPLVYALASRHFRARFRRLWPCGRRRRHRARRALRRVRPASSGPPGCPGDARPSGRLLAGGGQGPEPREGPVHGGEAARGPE

[6] = molecular target: T2, Neuropeptide Y receptor type 1 (Homo sapiens, UniProt P25929); experiment: NPY-Y1 receptor antagonist potency, dose response, cell-based (AID 1277); type: functional
T2 sequence (P25929 whole entry): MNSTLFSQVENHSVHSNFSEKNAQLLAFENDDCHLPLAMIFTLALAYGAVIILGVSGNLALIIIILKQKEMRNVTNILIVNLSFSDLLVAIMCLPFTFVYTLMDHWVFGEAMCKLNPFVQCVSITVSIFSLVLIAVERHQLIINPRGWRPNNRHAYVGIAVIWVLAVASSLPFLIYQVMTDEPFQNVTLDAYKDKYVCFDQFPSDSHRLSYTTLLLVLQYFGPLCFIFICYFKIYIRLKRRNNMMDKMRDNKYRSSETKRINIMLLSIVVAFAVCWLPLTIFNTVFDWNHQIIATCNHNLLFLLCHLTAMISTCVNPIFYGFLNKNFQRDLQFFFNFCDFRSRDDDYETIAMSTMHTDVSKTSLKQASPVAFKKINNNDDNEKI

[7] = molecular target: T3, Neuropeptide Y receptor type 2 (Homo sapiens, UniProt P49146); experiment: NPY-Y2 antagonist potency, selectivity check, dose response, counter-screen for NPY-Y1 antagonist project, cell-based (AID 1278); type: functional
T3 sequence (P49146 whole entry): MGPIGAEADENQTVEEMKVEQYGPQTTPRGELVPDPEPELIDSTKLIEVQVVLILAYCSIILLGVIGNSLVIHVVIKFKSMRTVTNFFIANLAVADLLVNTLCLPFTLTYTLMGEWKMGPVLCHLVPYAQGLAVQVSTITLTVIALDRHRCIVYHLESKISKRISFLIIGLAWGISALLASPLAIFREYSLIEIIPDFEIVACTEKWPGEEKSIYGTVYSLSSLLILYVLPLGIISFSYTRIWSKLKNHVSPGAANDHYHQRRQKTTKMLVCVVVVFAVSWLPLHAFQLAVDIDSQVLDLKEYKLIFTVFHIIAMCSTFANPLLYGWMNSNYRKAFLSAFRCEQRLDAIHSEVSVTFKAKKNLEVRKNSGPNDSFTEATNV

Protein Wnt-3a = Protein Wnt-3a (Mus musculus, UniProt P27467); experiment: Wnt3a-driven reporter signaling inhibition, dose response, selectivity assay for Gli-SUFU antagonist project, Wnt-LIGHT cells, luminescence (AID 651570); type: functional; conditions: read-out: IC50_Mean;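 further: Wnt-LIGHT reporter cells stimulated with conditioned medium from Wnt3a-producing cells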
Sequence of Protein Wnt-3a (P27467 whole entry): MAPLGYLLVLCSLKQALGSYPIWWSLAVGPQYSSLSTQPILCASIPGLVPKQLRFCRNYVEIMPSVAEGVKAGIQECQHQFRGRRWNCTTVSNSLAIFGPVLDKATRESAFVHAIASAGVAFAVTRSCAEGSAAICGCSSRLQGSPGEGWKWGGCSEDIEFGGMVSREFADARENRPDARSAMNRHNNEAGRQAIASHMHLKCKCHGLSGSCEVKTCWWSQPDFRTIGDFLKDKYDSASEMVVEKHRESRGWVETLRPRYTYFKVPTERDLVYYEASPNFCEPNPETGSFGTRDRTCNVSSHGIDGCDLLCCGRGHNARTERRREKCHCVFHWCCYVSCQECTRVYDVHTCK

[8] = enhancers of respiration in Yfh1-depleted yeast, dose response, Friedreich's ataxia, plus single-dose screen (AID 1465); type: functional;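 further: yeast depleted of Yfh1p frataxin homolog grown on glycerol needing respiration; WST-1 tetrazolium dye reduction as measure of cellular dehydrogenase metabolic activity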
[9] = Luminescence-based counterscreen assay for KLF5 inhibitors: dose response cell-based high throughput screening assay to identify cytotoxic compounds using the IEC-6 intestinal epithelial cell line. [Related pubchem assays: 1700 (Primary screen.), 1834 (Confirmation screen.), 1858 (Summary AID.), 1905 (Counterscreen.)]; type: functional
[10] = molecular target: T4, Microphthalmia-associated transcription factor (Homo sapiens, UniProt O75030); experiment: TRPM1 promoter luciferase signal decrease, dose response, MITF inhibitor project, cell-based, SK-MEL-5, cherry-picked, set 3 (AID 493073); type: functional
T4 sequence (O75030 whole entry): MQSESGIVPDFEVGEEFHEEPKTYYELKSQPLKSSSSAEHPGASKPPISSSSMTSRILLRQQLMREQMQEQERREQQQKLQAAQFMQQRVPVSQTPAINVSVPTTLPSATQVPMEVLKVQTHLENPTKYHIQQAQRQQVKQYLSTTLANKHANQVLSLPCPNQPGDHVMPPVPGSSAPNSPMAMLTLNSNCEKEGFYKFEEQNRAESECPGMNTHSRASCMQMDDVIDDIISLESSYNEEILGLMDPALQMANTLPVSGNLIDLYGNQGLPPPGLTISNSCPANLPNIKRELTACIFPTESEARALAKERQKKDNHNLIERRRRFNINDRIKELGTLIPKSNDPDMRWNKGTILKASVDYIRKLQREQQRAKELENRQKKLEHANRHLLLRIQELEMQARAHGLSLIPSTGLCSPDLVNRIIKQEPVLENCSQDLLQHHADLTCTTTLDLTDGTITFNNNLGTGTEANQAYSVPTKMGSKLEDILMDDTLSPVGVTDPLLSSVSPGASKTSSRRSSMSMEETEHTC

Melanocortin receptor 4 = Melanocortin receptor 4 (Homo sapiens, UniProt P32245); experiment: MC4R antagonist potency on cAMP, dose response, cell-based, TR-FRET, biased antagonists (AID 602298); type: functional;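 further: antagonist potency against agonist-stimulated cAMP production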
Sequence of Melanocortin receptor 4 (P32245 whole entry): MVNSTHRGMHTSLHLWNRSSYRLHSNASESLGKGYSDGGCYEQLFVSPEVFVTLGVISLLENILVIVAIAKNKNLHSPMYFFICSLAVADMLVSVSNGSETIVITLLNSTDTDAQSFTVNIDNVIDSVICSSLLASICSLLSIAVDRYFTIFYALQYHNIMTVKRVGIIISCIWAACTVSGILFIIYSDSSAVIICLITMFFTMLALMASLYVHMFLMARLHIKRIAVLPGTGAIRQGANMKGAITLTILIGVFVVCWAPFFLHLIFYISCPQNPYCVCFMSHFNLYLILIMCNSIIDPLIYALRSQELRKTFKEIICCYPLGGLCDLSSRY

[11] = inhibitors of Bluetongue virus cytopathic effect, confirmation, arbovirus, BSR cells (AID 1250); type: functional;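 further: protection from viral cytopathic effect measured as cell viability by ATP luminescence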
[12] = nonselective inhibitors of cellular cAMP signaling, dose response, counter-screen for MC4R biased antagonist project, cell-based, TR-FRET cAMP detection (AID 602305); type: functional;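 further: U2OS cells stimulated with forskolin near its EC80 as the cAMP inducer; potency is for inhibition of forskolin-stimulated cAMP signaling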
Aminopeptidase N = molecular target: T5, Aminopeptidase N (Plasmodium falciparum FcB1/Columbia, UniProt O96935); experiment: P. falciparum M1AAP inhibitors, biochemical, fluorogenic H-Leu-NHMec substrate, 1536-well (AID 1445); parameters: species or system Plasmodium falciparum 3D7, 3D7
T5 sequence (O96935 whole entry): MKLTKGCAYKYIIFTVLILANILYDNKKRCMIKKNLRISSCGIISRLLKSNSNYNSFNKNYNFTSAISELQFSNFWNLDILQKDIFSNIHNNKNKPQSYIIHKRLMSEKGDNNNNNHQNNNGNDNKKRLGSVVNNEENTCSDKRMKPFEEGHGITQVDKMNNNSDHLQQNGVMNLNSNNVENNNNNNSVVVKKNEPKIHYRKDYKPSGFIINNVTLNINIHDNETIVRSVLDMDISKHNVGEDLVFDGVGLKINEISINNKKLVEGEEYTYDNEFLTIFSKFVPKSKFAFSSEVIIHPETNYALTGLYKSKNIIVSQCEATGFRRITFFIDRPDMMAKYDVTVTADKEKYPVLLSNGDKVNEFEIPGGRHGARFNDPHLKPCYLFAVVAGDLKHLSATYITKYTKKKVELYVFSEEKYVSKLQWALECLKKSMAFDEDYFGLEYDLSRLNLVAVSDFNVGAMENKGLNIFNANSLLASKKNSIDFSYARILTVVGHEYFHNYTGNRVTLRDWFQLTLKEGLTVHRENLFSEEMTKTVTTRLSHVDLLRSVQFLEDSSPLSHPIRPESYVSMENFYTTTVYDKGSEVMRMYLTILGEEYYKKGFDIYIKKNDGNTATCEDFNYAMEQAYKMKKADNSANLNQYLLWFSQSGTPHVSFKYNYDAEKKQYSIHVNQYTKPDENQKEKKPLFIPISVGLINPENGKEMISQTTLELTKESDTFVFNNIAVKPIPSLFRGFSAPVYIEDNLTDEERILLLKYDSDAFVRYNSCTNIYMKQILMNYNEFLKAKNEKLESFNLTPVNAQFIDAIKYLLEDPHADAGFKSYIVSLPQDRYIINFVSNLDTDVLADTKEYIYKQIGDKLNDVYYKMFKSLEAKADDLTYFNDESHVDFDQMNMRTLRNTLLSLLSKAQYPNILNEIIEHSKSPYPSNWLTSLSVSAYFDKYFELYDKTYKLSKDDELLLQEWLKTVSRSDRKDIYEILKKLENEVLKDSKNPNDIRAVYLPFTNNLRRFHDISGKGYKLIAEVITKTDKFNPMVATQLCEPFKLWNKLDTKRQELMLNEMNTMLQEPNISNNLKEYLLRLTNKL

[13] = M. tuberculosis H37Rv growth inhibitors, H37Rv strain (AID 1626); type: functional
cells [14] = experiment: cells
[15] = HEp-2 cell cytotoxicity, dose response, cytotoxicity control for RSV inhibitor project, HTS (AID 2410); type: functional; conditions: human respiratory syncytial virus
Paired box protein Pax-8 = Paired box protein Pax-8 (Homo sapiens, UniProt Q06710); experiment: inhibitors of PAX8-driven TPO luciferase reporter, dose response, RMG-I cells, cherry-pick (AID 687027); type: functional, cell-based;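 further: luciferase reporter driven by Pax8 target thyroperoxidase promoter measured by SteadyGlo luminescence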
Sequence of Paired box protein Pax-8 (Q06710 whole entry): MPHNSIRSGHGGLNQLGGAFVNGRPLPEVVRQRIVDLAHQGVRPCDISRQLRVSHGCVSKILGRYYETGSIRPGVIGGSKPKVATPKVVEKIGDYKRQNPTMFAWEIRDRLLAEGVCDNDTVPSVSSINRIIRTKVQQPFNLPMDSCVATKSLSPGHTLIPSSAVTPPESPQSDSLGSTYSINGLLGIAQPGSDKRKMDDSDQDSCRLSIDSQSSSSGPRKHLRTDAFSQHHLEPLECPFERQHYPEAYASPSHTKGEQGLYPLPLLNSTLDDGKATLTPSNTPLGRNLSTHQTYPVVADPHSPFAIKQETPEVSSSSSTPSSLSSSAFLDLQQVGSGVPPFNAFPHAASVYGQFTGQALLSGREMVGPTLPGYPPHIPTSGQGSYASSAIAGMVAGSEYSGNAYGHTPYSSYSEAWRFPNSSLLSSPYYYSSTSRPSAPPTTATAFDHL

[16] = A549 cell cytotoxicity, dose response, cytotoxicity control, plate reader, cherry-pick, antagonist series (AID 743412); type: functional, cell-based
[17] = HepG2 cell cytotoxicity, dose response, cytotoxicity control, plate reader, cherry-pick, antagonist series (AID 743416); type: functional, cell-based
[18] = MC4R antagonists, dose response, counter-screen for LGR2 antagonist project, cell-based, plate reader, cherry pick (AID 743444); type: functional;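 further: transfected HEK 293 cells stimulated with alpha-MSH peptide; potency of inhibitors of the alpha-MSH evoked signal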
[19] = molecular target: FAD-linked sulfhydryl oxidase ALR (Homo sapiens, UniProt P55789); experiment: inhibitors of human ALR sulfhydryl oxidase, dose response, biochemical, H2O2 detection, luminescence, cherry-pick (AID 493248)
Sequence of FAD-linked sulfhydryl oxidase ALR (P55789 whole entry): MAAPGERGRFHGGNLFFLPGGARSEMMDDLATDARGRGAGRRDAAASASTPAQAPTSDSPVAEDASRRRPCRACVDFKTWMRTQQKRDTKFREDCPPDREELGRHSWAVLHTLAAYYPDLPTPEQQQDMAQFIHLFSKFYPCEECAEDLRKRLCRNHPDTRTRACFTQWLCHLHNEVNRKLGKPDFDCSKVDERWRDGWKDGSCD

[20] = LGR2 antagonists, dose response, cell-based, HEK293, CRE-luciferase reporter, cherry pick, set 2 (AID 743343); type: functional;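 further: transfected cells were stimulated with diluted bursicon conditioned medium after compound addition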
[21] = molecular target: Sphingosine 1-phosphate receptor 1 (Homo sapiens, UniProt P21453); type: functional;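 further: Tango beta-arrestin reporter U2OS cells stimulated with S1P near its EC80; inhibitor potency meaning antagonism of receptor activation by the natural agonist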
Sequence of Sphingosine 1-phosphate receptor 1 (P21453 whole entry): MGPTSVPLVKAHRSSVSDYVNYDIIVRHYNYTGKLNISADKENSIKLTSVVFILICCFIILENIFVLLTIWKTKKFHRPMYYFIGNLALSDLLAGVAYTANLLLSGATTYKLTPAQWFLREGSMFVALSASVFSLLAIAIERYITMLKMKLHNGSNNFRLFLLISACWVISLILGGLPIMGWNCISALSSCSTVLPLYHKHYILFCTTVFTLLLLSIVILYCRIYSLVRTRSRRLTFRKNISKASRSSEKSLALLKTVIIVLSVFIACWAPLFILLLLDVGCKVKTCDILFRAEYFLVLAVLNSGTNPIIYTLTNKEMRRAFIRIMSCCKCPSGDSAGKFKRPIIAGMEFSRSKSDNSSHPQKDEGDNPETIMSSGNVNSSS

[22] = molecular target: T6, Sphingosine 1-phosphate receptor 4 (Homo sapiens, UniProt O95977); experiment: Fluorescence dose response cell-based high throughput screening assay for antagonists of the Sphingosine 1-Phosphate Receptor 4 (S1P4). [Related pubchem assays: 1524 (Confirmation in triplicates.), 1510 (Primary screen.)]; type: functional
T6 sequence (O95977 whole entry): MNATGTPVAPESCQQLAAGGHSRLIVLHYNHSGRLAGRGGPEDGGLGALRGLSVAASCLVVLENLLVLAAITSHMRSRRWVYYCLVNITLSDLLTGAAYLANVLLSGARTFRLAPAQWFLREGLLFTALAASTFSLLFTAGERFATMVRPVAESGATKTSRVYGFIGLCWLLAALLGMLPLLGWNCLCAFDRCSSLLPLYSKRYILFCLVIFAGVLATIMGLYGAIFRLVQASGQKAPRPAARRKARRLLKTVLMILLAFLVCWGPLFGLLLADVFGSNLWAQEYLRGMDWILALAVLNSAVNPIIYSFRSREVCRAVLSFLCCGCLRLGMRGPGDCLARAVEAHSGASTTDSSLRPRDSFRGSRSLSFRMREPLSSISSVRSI

[23] = HEK293 cell cytotoxicity, dose response, cytotoxicity control, plate reader, cherry-picked samples (AID 743446); type: functional, cell-based
[24] = molecular target: T6, Sphingosine 1-phosphate receptor 4; experiment: Late stage fluorescence dose response cell-based screening assay for antagonists of the Sphingosine 1-Phosphate Receptor 4 (S1P4). [Related pubchem assays: 1524 (Confirmation screen (S1P4 antagonists).), 1510 (Primary screen (S1P4 antagonists).), 1853 (Summary AID (S1P4 antagonists).), 1692 (Dose response screen (S1P4 antagonists).)]; type: functional
[25] = Fluorescence-based cell-based high throughput dose response assay for inhibitors of the interaction of nucleotide-binding oligomerization domain containing 2 (NOD2) and the receptor-interacting serine-threonine kinase 2 (RIPK2).; type: functional; conditions: Homo sapiens

For COc1ccc(-[n+]2c(-c3ccc(Cl)cc3)cn3c2CCc2ccccc2-3)cc1, the IC50 [1] was > 80 µM (inactive), the AC50 (INS1) was 2.08 µM (active) and the EC50 [2] was > 60 µM (not active). For the same molecule, the EC50 (cells [3]) was > 29.9 µM (inactive), the EC50 [4] was > 150 µM (inactive) and the EC50 [5] was 0.24 µM (active). For the same molecule, the IC50 (Galanin receptor type 3) was 5.02 µM (active), the IC50 [6] was 7.36 µM (active) and the IC50 [7] was 10.3 µM (not active). The IC50 (Protein Wnt-3a) was 25.6 µM (inactive).

With CCCC(C(=O)O)N1C(=O)/C(=C/c2cccn2C)SC1=S (configuration not stated) the EC50 [8] was > 100 µM (active).

With CCCc1ccc(-c2ccc(/C=C/C(=O)O)cc2)nc1 the IC50 [9] was > 39.8 µM (not active) and the AC50 [10] was 0.039 µM (active).

For CCOc1ccc2nc(NC(=O)CSc3nc(O)c(C#N)c(-c4ccccc4)n3)sc2c1, the IC50 (Melanocortin receptor 4) was > 64.6 µM (inactive), the IC50 [11] was 37.9 µM (active) and the IC50 [12] was > 64.6 µM (inactive). The IC50 (Aminopeptidase N) was 24.1 µM (active) and the IC50 [13] was > 100 µM (active).

For COc1ccc(CCNC(=O)c2ccc(-c3ccc([N+](=O)[O-])cc3Cl)o2)cc1, the IC50 (cells [14]) was 25.5 µM (active) and the CC50 [15] was 33.6 µM (active).

In the case of COc1ccc([N+](=O)[O-])c(S(=O)(=O)c2ccccc2)n1, the AC50 (Paired box protein Pax-8) is reported as 8.18 µM (active), the AC50 [16] is reported as 8.75 µM (active) and the AC50 [17] is reported as 7.56 µM (active). The AC50 [18] was 4.27 µM (active), the AC50 (INS1) was 7.12 µM (active) and the AC50 [19] was 0.501 µM (active). The AC50 [20] was 4.61 µM (active), the IC50 [21] was 7.19 µM (active) and the IC50 [22] was 0.691 µM (active). For the same molecule, the AC50 [23] was 8.06 µM (active), the IC50 [24] was 1.42 µM (not active) and the IC50 [25] was 3.15 µM (active).
